Laboratory results reported in publication PMC10003747, “A Novel Homodimer Peptide–Drug Conjugate Improves the Efficacy of HER2-Positive Breast Cancer Therapy” (International Journal of Molecular Sciences, 2023).

Assays:
[1] = Stability of the PDC in human serum/plasma by HPLC; type: in vitro ADME; details: human serum (methods: human plasma), 37 °C
Description: HP (calcd Mw: 3183.7) was successfully synthesized by using solid-phase peptide synthesis (SPPS), and the peptides were cleaved and purified by HPLC (Figure S2) afterward and verified by using electrospray ionization mass spectrometry examinations (Figure 2a). […] The mass charge ratio (m/z) obtained by the experiment is consistent with the theoretical m/z. […] Polyethylene glycol (PEG) has been widely used to modify small molecules to slow renal clearance and to increase the half-life. It is essential that the PDC be maintained in a steady circulation to prevent pre-release of cytotoxic payloads, resulting in systemic toxicity. […] To assess plasma stability, the PDC was incubated with human serum at 37 °C from 0 to 48 h, and aliquots were taken at different time points and analyzed by using HPLC. […]
To quantify the amount of DOX released from the PDC, 1 mg of the substance was dissolved in 2 mL of ultra-pure water and placed into a dialysis bag (MWCO 1000 Da). […] The samples were analyzed for released DOX concentration using a fluorescence spectrophotometer at 589 nm and the DOX concentration was calculated based on a standard curve. […] After centrifugation at 13,000× g for 10 min, the supernatant was collected and the intact percentage of the PDC was detected by HPLC [19].

[2] = system: SKBR-3 xenografted (BALB/c nude) mice; experiment: In vivo anti-tumor study; details: SKBR-3 xenograft, 5 mg/kg equivalent DOX, tail vein, five times every two days, n = 4, day 14
Protocol: (§1) In vivo anti-tumor studies were evaluated by using SKBR-3 xenografted (BALB/c nude) mice treated with the PDC, free DOX, or saline. […] Additionally, histological examination of the tumors was performed. […] A TUNEL assay indicated a greater number of apoptotic cells after treatments with the PDC group compared to the free DOX group and reduced the offtarget effects (Figure 5d).
In this study, a total of 12 female BALB/c mice (22–24 g) were used, and all animal experiments were conducted in compliance with the ethical guidelines approved by the ethics committee of Fujian Medical University. Approximately 2 × 10^6 SKBR-3 cells were injected subcutaneously in the right hind limb of the nude mice. Upon the tumor reaching a volume of around 100 mm^3, the mice were randomly allocated into three groups (n = 4) and administered through the tail vein with PBS, free DOX solution, and PDC solution (5 mg/kg equivalent DOX), respectively, five times every two days. Saline was used as a negative control. After each administration, the size and weight of the tumor were assessed. Subsequently, the mice were euthanized, and their tumor tissues and other major organs were dissected and preserved with 4% formaldehyde. […]

[3] = system: SKBR-3 cells; experiment: Cytotoxicity assay (CCK8 kit); type: cell-based, human; details: for IC50: 48 h incubation, 0 to 1 μM, CCK8, from dose response log curves
Description: (§2) Based on the specific acidic tumor microenvironment (pH5.4–7.0), an acid-responsive linker was designed to undergo acid hydrolysis after cellular uptake, releasing the drug into endosomes or lysosomes to achieve site-specific delivery. It is theoretically possible that a HPD with an acid-sensitive hydrazone bond can display a regulated release behavior when the external pH value is altered. As observed from the drug release profile in Figure 3a, the PDC remains structurally stable in PBS at a pH of 7.4, as only about 35% of DOX is released within 24 h. In contrast, when the pH of PBS is reduced to 5.8, there is an explosive release of DOX in acidic media due to the pH-sensitive hydrolysis of the […] bond between DOX and the EMCH linker. […] Figure 3b illustrates that the cytotoxicity of the PDC and free DOX on SKBR-3 cells augmented with prolonged incubation time. When the equivalent concentration was 1 μM, the viability of SKBR-3 cells in the PDC group was 26.3%. […] To determine if our novel conjugate could enhance the effect of DOX through PEGylation and HER2-receptor-mediated internalization, we tested the cytotoxic effect of the PDC on MCF-7 and SKBR-3 breast cancer cells.
Cultures of SKBR-3 and MCF-7 cells were established in DMEM medium supplemented with 10% fetal bovine serum, 100 U/mL penicillin, and 100 μg/mL streptomycin at 37 °C and 5% CO2. Approximately 1 × 10^5 cells/mL were seeded into culture dishes and incubated overnight. Subsequently, 0.5 mg/mL PDC was added and incubated for 2–8 h in conjunction with an equal amount of free DOX as a control. After washing three times with PBS, Hoechst 33342 and LysoTracker Green DND-26 were added to stain the nucleus and lysosome for 15 min, followed by three additional washes with PBS. Finally, confocal fluorescence images were obtained using a Zeiss 710 system. SKBR-3 cells were seeded in a 96-well culture plate at a density of 5000 cells per well and incubated for 24 h. Afterwards, cytotoxicity investigations were conducted by incubating the cells with the PDC and free DOX (in concentrations from 0 to 1 μM) for 48 h. Then, the CCK8 kit was used to detect cell survival.

[4] = In vitro DOX release from the PDC (dialysis in PBS); type: physicochemical; details: fluorescence at 589 nm
Description: as §2
To quantify the amount of DOX released from the PDC, 1 mg of the substance was dissolved in 2 mL of ultra-pure water and placed into a dialysis bag (MWCO 1000 Da). This bag was then transferred to a tube containing 10 mL of PBS solution with varying pH values (7.4 and 5.8). The tube was stirred at 37 °C in the dark and samples of the PBS solution were collected at different intervals. Subsequently, a new 10 mL of PBS was added to the tube after each sample. The samples were analyzed for released DOX concentration using a fluorescence spectrophotometer at 589 nm and the DOX concentration was calculated based on a standard curve. The PDC was incubated with human plasma (final peptide concentration of 50 μM) for 0, 2, 4, 8, 12, 24, and 48 h in order to assess the stability of the conjugate. Then, […] of the solution was mixed with […] of methanol to terminate enzymatic hydrolyses. After centrifugation at 13,000× g for 10 min, the supernatant was collected and the intact percentage of the PDC was detected by HPLC [19].

[5] = system: SKBR-3 cells; experiment: Cellular uptake and lysosome colocalization by CLSM; type: cell-based, human
Protocol: To assess the uptake efficiency of the PDC in tumor cells, human breast cancer cell lines SKBR-3 (high expression of HER2) were used as positive cells, and the MCF-7 cell line was used as a negative control. […] Along with the incubation time, DOX escaped from the lysosomes, and brighter red fluorescence was detected in the nuclei after 8 h of incubation (Figure 4a). It has been observed that peptide conjugates in the acidic environment of endosomes/lysosomes undergo hydrolysis at the acid-response hydrazone linker, thereby releasing DOX into cells, which is in line with prior reports. […] The lysosomal escape ability was evaluated by the localization of the PDC and lysosomes in SKBR-3 cells (Figure 4c), evidenced by the separation of red (DOX) and green (LysoTracker) fluorescence.
Cultures of SKBR-3 and MCF-7 cells were established in DMEM medium supplemented with 10% fetal bovine serum, 100 U/mL penicillin, and 100 μg/mL streptomycin at 37 °C and 5% CO2. Approximately 1 × 10^5 cells/mL were seeded into culture dishes and incubated overnight. Subsequently, 0.5 mg/mL PDC was added and incubated for 2–8 h in conjunction with an equal amount of free DOX as a control. […] Finally, confocal fluorescence images were obtained using a Zeiss 710 system. […]

[6] = system: BALB/c nude mice; experiment: In vivo safety: body weight and H&E staining of major organs; details: 5 mg/kg equivalent DOX i.v., five times every two days; for body weight change versus PBS group: n = 4; for H&E histology of major organs: compared with PBS group
Protocol: as §1
Good biocompatibility and the acceptable biosafety of a drug are essential for its biological application. […] The PDC had higher in vivo anti-tumor efficacy than DOX without apparent toxicities.
In this study, a total of 12 female BALB/c mice (22–24 g) were used, and all animal experiments were conducted in compliance with the ethical guidelines approved by the ethics committee of Fujian Medical University. Approximately 2 × 10^6 SKBR-3 cells were injected subcutaneously in the right hind limb of the nude mice. Upon the tumor reaching a volume of around 100 mm^3, the mice were randomly allocated into three groups (n = 4) and administered through the tail vein with PBS, free DOX solution, and PDC solution (5 mg/kg equivalent DOX), respectively, five times every two days. Saline was used as a negative control. After each administration, the size and weight of the tumor were assessed. Subsequently, the mice were euthanized, and their tumor tissues and other major organs were dissected and preserved with 4% formaldehyde. Paraffin sections were then produced, and the fixed paraffin-embedded tissues were sliced into 5 μm sections for hematoxylin and eosin (H&E) and TUNEL (terminal deoxynucleotidyl transferase dUTP nick-end labeling) analyses.

COc1cccc2c1C(=O)c1c(O)c3c(c(O)c1C2=O)C[C@@](O)(C(CO)=NNC(=O)CCCCCN1C(=O)CC(SC[C@H](NC(=O)CCOCCOCCOCCOCCNC(=O)[C@H](CCCCNC(=O)CCOCCOCCOCCOCCNC(=O)[C@H](CCCCN)NC(=O)[C@H](CC(C)C)NC(=O)[C@H](CCCNC(=N)N)NC(=O)[C@H](CC(C)C)NC(=O)[C@H](CCC(=O)O)NC(=O)[C@H](Cc2c[nH]c4ccccc24)NC(=O)[C@H](CC(N)=O)NC(=O)[C@@H](N)CCCNC(=N)N)NC(=O)CCOCCOCCOCCOCCNC(=O)[C@H](CCCCN)NC(=O)[C@H](CC(C)C)NC(=O)[C@H](CCCNC(=N)N)NC(=O)[C@H](CC(C)C)NC(=O)[C@H](CCC(=O)O)NC(=O)[C@H](Cc2c[nH]c4ccccc24)NC(=O)[C@H](CC(N)=O)NC(=O)[C@@H](N)CCCNC(=N)N)C(=O)O)C1=O)C[C@@H]3O[C@H]1C[C@H](N)[C@H](O)[C@H](C)O1 (stereo partly shown) [PDC]
half-life at 50 μM ([1]; 50 μM final peptide concentration, 0-48 h, methanol quench, intact PDC by HPLC, read-out: half-life of the conjugate (converted)): ~1440 min
remaining at 48 h, 50 μM ([1]; 50 μM, 48 h incubation, HPLC, read-out: intact conjugate remaining at 48 h): ~15%
reduction of tumor growth on day 14 post treatment [2]: 51.1 ± 3.1%
cytotoxic effect on SKBR-3 versus MCF-7 breast cancer cells ([3]; 48 h, Figure S4, HER2 high-expression SKBR-3 vs MCF-7): significantly more cytotoxic in the HER2 high-expression cell lines
IC50 of the PDC relative to free DOX ([3]; SKBR-3 cells, 48 h): three times less
IC50 ([3]; SKBR-3 cells): 143 nM
viability of SKBR-3 cells ([3]; equivalent concentration 1 μM, 48 h, CCK8): 26.3%
DOX released within 8 h, pH 5.8 ([4]; PBS pH 5.8, 37 °C, dialysis MWCO 1000 Da, 8 h): 78%
DOX released within 24 h, pH 5.8 ([4]; PBS pH 5.8, 37 °C, dialysis MWCO 1000 Da, 24 h): ~90%
DOX released, pH 5.8, start of the rise ([4]; PBS pH 5.8, 37 °C, dialysis MWCO 1000 Da, early value, time not given): around 20%
DOX released within 24 h, pH 7.4 ([4]; PBS pH 7.4, 37 °C, dark, dialysis bag MWCO 1000 Da, 1 mg in 2 mL water against 10 mL PBS, 24 h): about 35%
uptake of the PDC in SKBR-3 versus MCF-7 cells ([5]; CLSM, Figure S3, HER2 negative MCF-7): higher uptake rate
cellular uptake relative to free DOX ([5]; HER2-positive SKBR-3 cells): 2.9 times
body weight change versus PBS group [6]: no noteworthy distinction in body weight
H&E histology of major organs [6]: no morphological aberrations in organ tissues

COc1cccc2c1C(=O)c1c(O)c3c(c(O)c1C2=O)C[C@@](O)(C(=O)CO)C[C@@H]3O[C@H]1C[C@H](N)[C@H](O)[C@H](C)O1.Cl [free DOX, doxorubicin hydrochloride, reference compound]
reduction of tumor growth on day 14 post treatment [2]: 23.13 ± 2.4%
IC50 ([3]; SKBR-3 cells): 410 nM
body weight change versus PBS group [6]: significantly decreased
H&E histology of major organs [6]: clear cardiotoxicities
